Reference: PubChem BioAssay (NCI)
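96-well plates; 48 h exposure; 5 concentrations. Endpoints by linear interpolation between flanking doses. Not reached: highest tested concentration assigned. TGI denotes the concentration required for complete inhibition of growth.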

Key:
Assay in all cases: NCI anticancer screen, dose series, 48 h
[1] = test system: SF-539 CNS
[2] = test system: NCI/ADR-RES ovarian
[3] = test system: MDA-MB-231 breast
[4] = test system: SK-OV-3 ovarian
[5] = test system: T-47D breast
[6] = test system: SW-620 colon
[7] = test system: 786-0 renal
[8] = test system: EKVX NSCLC
[9] = test system: UO-31 renal
[10] = test system: MOLT-4 leukemia
[11] = test system: SK-MEL-5 melanoma
[12] = test system: SF-268 CNS
[13] = test system: OVCAR-5 ovarian
[14] = test system: UACC-257 melanoma
[15] = test system: SN12C renal
[16] = test system: HOP-62 NSCLC
[17] = test system: PC-3 prostate
[18] = test system: HOP-92 NSCLC
[19] = test system: HS 578T breast
[20] = test system: SNB-19 CNS
[21] = test system: U251 CNS
[22] = test system: NCI-H522 lung
[23] = test system: RPMI-8226 leukemia
[24] = test system: BT-549 breast
[25] = test system: HCT-116 colon
[26] = test system: NCI-H23 lung
[27] = test system: CAKI-1 renal
[28] = test system: SF-295 CNS
[29] = test system: COLO 205 colon
[30] = test system: ACHN renal
[31] = test system: MDA-MB-435
[32] = test system: UACC-62 melanoma
[33] = test system: RXF 393 renal
[34] = test system: SK-MEL-28 melanoma
[35] = test system: M14 melanoma
[36] = test system: A549 NSCLC
[37] = test system: CCRF-CEM leukemia
[38] = test system: IGROV1 ovarian
[39] = test system: NCI-H226 lung
[40] = test system: KM12 colon
[41] = test system: OVCAR-3 ovarian
[42] = test system: SK-MEL-2 melanoma
[43] = test system: HCT-15 colon
[44] = test system: HL-60(TB) leukemia
[45] = test system: MALME-3M melanoma
[46] = test system: SNB-75 CNS
[47] = test system: LOX IMVI melanoma
[48] = test system: A498 renal
[49] = test system: OVCAR-4 ovarian
[50] = test system: TK-10 renal
[51] = test system: MDA-N
[52] = test system: K-562 leukemia
[53] = test system: HT29 colon
[54] = test system: NCI-H460 lung
[55] = test system: DU-145 prostate
[56] = test system: OVCAR-8 ovarian
[57] = test system: MCF7 breast
[58] = test system: HCC-2998 colon
[59] = test system: SR leukemia

Compound: COc1ccc(N(C(=O)OC(C)(C)C)[C@@H]2C(C)=C[C@H]([S@@](=O)c3ccc(C)cc3)[C@@H]3C(=O)N(C)C(=O)[C@@H]32)cc1
- TGI [1]: 43.5 µM
- TGI [2]: 52.1 µM
- TGI [3]: 46.4 µM
- TGI [4]: 30.3 µM
- TGI [5]: 99.8 µM
- TGI [6]: 45.5 µM
- TGI [7]: 37.9 µM
- TGI [8]: 9.85 µM
- TGI [9]: 30.1 µM
- TGI [10]: 94.6 µM
- TGI [11]: 43.7 µM
- TGI [12]: 33.9 µM
- TGI [13]: 43.1 µM
- TGI [14]: 43.8 µM
- TGI [15]: 32.2 µM
- TGI [16]: 64.2 µM
- TGI [17]: > 100 µM
- TGI [18]: 61.5 µM
- TGI [19]: 42.9 µM
- TGI [20]: 51.5 µM
- TGI [21]: 31.9 µM
- TGI [22]: 18.5 µM
- TGI [23]: 44.3 µM
- TGI [24]: 33.9 µM
- TGI [25]: 35.9 µM
- TGI [26]: 45.7 µM
- TGI [27]: 52.6 µM
- TGI [28]: 35.9 µM
- TGI [29]: 31 µM
- TGI [30]: 43.8 µM
- TGI [31]: 37.9 µM
- TGI [32]: 48.4 µM
- TGI [33]: 30.4 µM
- TGI [34]: 41.3 µM
- TGI [35]: > 100 µM
- TGI [36]: > 100 µM
- TGI [37]: > 100 µM
- TGI [38]: 23.1 µM
- TGI [39]: 34.6 µM
- TGI [40]: 30.5 µM
- TGI [41]: 80.8 µM
- TGI [42]: 39.3 µM
- TGI [43]: > 100 µM
- TGI [44]: 47.5 µM
- TGI [45]: 71.8 µM
- TGI [46]: 21.4 µM
- TGI [47]: 17.5 µM
- TGI [48]: 29.3 µM
- TGI [49]: 34.2 µM
- TGI [50]: 43.4 µM
- TGI [51]: 40.8 µM
- TGI [52]: > 100 µM
- TGI [53]: 45.5 µM
- TGI [54]: > 100 µM
- TGI [55]: 81.8 µM
- TGI [56]: 46.7 µM
- TGI [57]: 62.1 µM

Compound: Cc1nn(-c2ccccc2)c(C)c1/C=N/NC(=O)c1sc(=S)n(-c2ccc(Cl)cc2)c1N
- TGI [1]: > 100 µM
- TGI [2]: > 100 µM
- TGI [3]: > 100 µM
- TGI [4]: > 100 µM
- TGI [5]: > 100 µM
- TGI [6]: > 100 µM
- TGI [7]: 59.9 µM
- TGI [8]: 8.91 µM
- TGI [9]: 55.7 µM
- TGI [10]: > 100 µM
- TGI [11]: 26 µM
- TGI [12]: > 100 µM
- TGI [13]: > 100 µM
- TGI [14]: > 100 µM
- TGI [58]: 88.4 µM
- TGI [15]: > 100 µM
- TGI [16]: > 100 µM
- TGI [17]: > 100 µM
- TGI [19]: 7.6 µM
- TGI [20]: > 100 µM
- TGI [21]: > 100 µM
- TGI [23]: 7.73 µM
- TGI [24]: > 100 µM
- TGI [25]: > 100 µM
- TGI [26]: > 100 µM
- TGI [27]: 9.68 µM
- TGI [28]: 5.37 µM
- TGI [29]: 38.9 µM
- TGI [30]: > 100 µM
- TGI [31]: > 100 µM
- TGI [32]: 74.1 µM
- TGI [33]: 6 µM
- TGI [34]: > 100 µM
- TGI [35]: > 100 µM
- TGI [36]: > 100 µM
- TGI [37]: > 100 µM
- TGI [38]: 4.26 µM
- TGI [39]: > 100 µM
- TGI [40]: > 100 µM
- TGI [41]: > 100 µM
- TGI [42]: > 100 µM
- TGI [43]: > 100 µM
- TGI [44]: > 100 µM
- TGI [45]: > 100 µM
- TGI [59]: > 100 µM
- TGI [46]: 5.49 µM
- TGI [47]: 8.73 µM
- TGI [48]: > 100 µM
- TGI [49]: 95.7 µM
- TGI [50]: 14.4 µM
- TGI [51]: > 100 µM
- TGI [52]: > 100 µM
- TGI [53]: > 100 µM
- TGI [54]: 95.1 µM
- TGI [55]: > 100 µM
- TGI [56]: > 100 µM
- TGI [57]: > 100 µM

Compound: COCOc1cc(OC)ccc1C=O
- TGI [1]: 61.9 µM
- TGI [2]: 52.1 µM
- TGI [3]: > 100 µM
- TGI [4]: > 100 µM
- TGI [5]: > 100 µM
- TGI [6]: > 100 µM
- TGI [7]: > 100 µM
- TGI [8]: > 100 µM
- TGI [9]: > 100 µM
- TGI [10]: > 100 µM
- TGI [11]: > 100 µM
- TGI [12]: > 100 µM
- TGI [13]: > 100 µM
- TGI [14]: > 100 µM
- TGI [58]: 71.5 µM
- TGI [15]: > 100 µM
- TGI [16]: > 100 µM
- TGI [17]: 88.8 µM
- TGI [19]: 64.9 µM
- TGI [20]: > 100 µM
- TGI [21]: > 100 µM
- TGI [22]: > 100 µM
- TGI [24]: > 100 µM
- TGI [25]: > 100 µM
- TGI [26]: > 100 µM
- TGI [27]: > 100 µM
- TGI [28]: > 100 µM
- TGI [29]: 54.2 µM
- TGI [30]: > 100 µM
- TGI [31]: 40.6 µM
- TGI [32]: > 100 µM
- TGI [33]: 39.1 µM
- TGI [34]: > 100 µM
- TGI [35]: > 100 µM
- TGI [36]: > 100 µM
- TGI [37]: > 100 µM
- TGI [38]: > 100 µM
- TGI [39]: > 100 µM
- TGI [40]: > 100 µM
- TGI [41]: 63.8 µM
- TGI [42]: > 100 µM
- TGI [43]: > 100 µM
- TGI [44]: > 100 µM
- TGI [45]: > 100 µM
- TGI [59]: 78.4 µM
- TGI [46]: > 100 µM
- TGI [47]: > 100 µM
- TGI [49]: > 100 µM
- TGI [50]: > 100 µM
- TGI [51]: 23.7 µM
- TGI [52]: > 100 µM
- TGI [53]: 66.8 µM
- TGI [54]: > 100 µM
- TGI [55]: > 100 µM
- TGI [56]: > 100 µM
- TGI [57]: > 100 µM
